Measured values from patent publication US20020025314A1, “Homeopathic compositions for the treatment of viral and metabolic deseases” (priority 1992, published 2002).

How the values were obtained:
[1] = test system: patient presenting with hyperthyroidism due to multinodular thyroid hyperplasia, and morning allergic rhinitis; assay: Case No. 2: TSH / free T4 and allergic rhinitis in a patient with hyperthyroidism; assay type: in vivo, human; conditions: for course of hyperthyroidism / thyroid hormone level under treatment: a few days of Basdene, 10 days of Neomercazole; for TSH: normal 0.2 to 4; for T4f: normal 10 to 25
Source text: A patient presenting with hyperthyroidism due to multinodular thyroid hyperplasia, and morning allergic rhinitis.
The normal levels are 0.2 to 4 for TSH and 10 to 25 for T4f. The TSH is abnormally low and the free T4 abnormally high. The patient receives treatment with a synthetic thyroid inhibitor, namely Basdene 9 on its own, starting on February 22, at increasing doses of 1 tbl on the 1st day, 2 tbl on the 2nd day and then 3 tbl per day. on 3 March TSH: 0.02
On March 7, the patient is seen again by the consultant and, in place of Basdene®, Neo-mercazole® is prescribed at doses of 3 tbl 3 times a day:
On March, 20 the patient is seen again and the following is added to the Neo-mercazole treatment for the allergic rhinitis:
Natrium muriaticum 6DH, 3 tbl/1 for 7 days, then
Natrium muriaticum 4CH, 3 granules/1 for 15 days.
In order to know whether it is the Natrium muriaticum or the Neomercazole 9 which has normalized the thyroid functions, the Neo-mercazole® is suddenly withdrawn, which, if it is the Neo-mercazole® which has lowered the T4f, should have the effect of raising it immediately to 30, and the regular administration of Natrium muriaticum 4CH is continued on April 13.
Natrium muriaticum 6DH: 3tbl/day from March 20 to April 11, then Natrium muriaticum 4CH: 3 granules/day from April 11 to April 28. On April 28, the patient is seen again by the consultant and the prescribed dose of Natrium muriaticum is further modified, being increased to Natrium muriaticum 5CH: 3 granules a day. The Neo-mercazole® was of course never restarted. The effect of this change in doses of Natrium muriaticum is to further lower the thyroid hormone:
The following dose of Natrium Muriaticum 5CH is still continued from this time on: 3 granules a day.
There was no cancer on the operated part. On August 1 the result of this operation is a T4f of 13.8, which is now near the lower limit of the norm (the norm being 10 to 25). A tendency towards hypothyroidism might be feared.

[2] = test system: child suffering from juvenile chronic polyarthritis; assay: Case No. 3: clinical course of juvenile chronic polyarthritis; assay type: in vivo, human; conditions: 1 tbl of 250 mg a day, before homeopathic treatment; disease worsens
[3] = on 17 March, after 10 days of Neo-mercazole 3 tbl 3 times a day

| Compound | course of hyperthyroidism / thyroid hormone level under treatment [1] | TSH ([1]; on 3 March, Basdene on its own from February 22, up to 3 tbl per day, 0.02 before treatment) | T4f ([1]; on 3 March, Basdene on its own from February 22, up to 3 tbl per day, 35 before treatment) | suppression of polyarticular symptoms [2] | TSH [1, 3] | T4f [1, 3] |
| --- | --- | --- | --- | --- | --- | --- |
| Oc1cc(Cc2ccccc2)nc(S)n1 [Basdene] | remained identical and even become slightly worse | 0.02 | 36.8 |  |  |  |
| COc1ccc2cc([C@H](C)C(=O)O)ccc2c1 [Naprosyn] |  |  |  | not sufficient to suppress the symptoms |  |  |
| CCOC(=O)n1ccn(C)c1=S [Neo-mercazole] | no improvement |  |  |  | 0.02 | 33.8 |
